This note sets out measurements from patent US20120245135A1, “Gallium Complexes, Pharmaceutical Compositions And Methods Of Use” (Genta Incorporated, priority 2011, published 2012).

This data set in a line: Oral bioavailability of gallium complexes in dogs (plasma gallium by ICP-MS). To be noted: for blood levels of gallium reached (peak blood concentration of gallium) / maximum blood concentration of gallium achieved: 2.5 mg/kg; for blood levels of gallium reached by oral controls: oral positive control (all three dogs) and oral negative control (highest value, one animal), Beagle dogs. Here is the method: Pharmacokinetics, oral bioavailability and bioequivalency of gallium-ligand complexes according to the invention were determined in dogs following a single oral gavage administration of the compounds as a suspension/solution in water in fasted male Beagle dogs at 2.5 mg/kg dog body weight or following administration of a single total dose of 30 mg in a capsule formulation (for histidine and carnosine only). The following complexes were selected for testing: gallium picolinate, gallium kojate, gallium (+)-mandalate, gallium (−)-mandalate, gallium tryptophanate, gallium acetyl piperidinate, gallium prolinate both neutral and ionic; and the capsules prepared from histidine and carnosine. Each compound was studied in groups of three fasted animals. Nine serial blood samples were collected from each animal by venipuncture of a jugular vein at the following time points post-dose: 0 (predose), 0.25, 0.5, 0.75, 1, 2, 4, 8, and 16 hours post-dose. Blood samples were collected into chilled tubes containing heparin as the anticoagulant.
Oral bioavailability of the test gallium complex was evaluated in each of the three animals in each test group.

Setting [1] is: single oral gavage, suspension/solution in water, fasted male Beagle dogs.

Bounds are passed on as bounds.

Regarding `O=C1[O][Ga-3]23([O]C(=O)[C@H](c4ccccc4)[OH+]2)([O]C(=O)[C@H](c2ccccc2)[OH+]3)[OH+]C1c1ccccc1` (stereo partly drawn) [gallium (+)-mandalate], the “blood levels of gallium reached (peak blood concentration of gallium)” value (male, Beagle, dog, in vivo, po) is “at least 1,000 ng/ml”.

Turning to `O=C1[O][Ga-3]23([O]C(=O)[C@@H](c4ccccc4)[OH+]2)([O]C(=O)[C@@H](c2ccccc2)[OH+]3)[OH+]C1c1ccccc1` (stereo partly drawn) [gallium (−)-mandalate], the “blood levels of gallium reached (peak blood concentration of gallium)” value (male, Beagle, dog, in vivo, po) is recorded as “at least 1,000 ng/ml”.

With `CC1=[O+][Ga-3]23([O]C(=O)C4CCCCN14)([O]C(=O)C1CCCCN1C(C)=[O+]2)[O]C(=O)C1CCCCN1C(C)=[O+]3` (stereo not drawn) [gallium acetyl piperidinate complex], the “maximum blood concentration of gallium achieved” value (“maximum blood concentration” for short) (male, Beagle, dog, in vivo, po) is reported as “about 200 ng/ml”.

Take `OCC1=CC2=[O+][Ga-3]34([O]C2=CO1)([O]C1=COC(CO)=CC1=[O+]3)[O]C1=COC(CO)=CC1=[O+]4` [gallium kojate]: for the setting “male, Beagle, dog, in vivo, po”, the “blood levels of gallium reached (peak blood concentration of gallium)” value is reported as “at least 1,000 ng/ml”.

`Cc1occc(=O)c1[O-].Cc1occc(=O)c1[O-].Cc1occc(=O)c1[O-].[Ga+3]` [gallium maltolate, reference compound]: the “blood levels of gallium reached by oral controls” value is listed as ≥ 1,000 ng/ml.

Take `O=[N+]([O-])[O-].O=[N+]([O-])[O-].O=[N+]([O-])[O-].[Ga+3]` [gallium nitrate, reference compound]: the “blood levels of gallium reached by oral controls” value is not above 700 ng/mL.

For the molecule `O=C1[O][Ga-3]23([O]C(=O)c4cccc[n+]42)([O]C(=O)c2cccc[n+]23)[n+]2ccccc21` [gallium picolinate], the “blood levels of gallium reached (peak blood concentration of gallium)” value (male, Beagle, dog, in vivo, po) is recorded as “at least 1,000 ng/ml”.

For `O=C([O-])C1CCCN1.O=C([O-])C1CCCN1.O=C([O-])C1CCCN1.[Ga+3]` (stereo not drawn) [gallium prolinate neutral complex], under setting [1], the “maximum blood concentration” value is reported as “about 300 ng/ml”.

Regarding `N[C@@H](Cc1c[nH]c2ccccc12)C(=O)[O-].N[C@@H](Cc1c[nH]c2ccccc12)C(=O)[O-].N[C@@H](Cc1c[nH]c2ccccc12)C(=O)[O-].[Ga+3]` [gallium tryptophanate complex], the “maximum blood concentration” value under setting [1] is reported as “about 500 ng/ml”.
